Source: patent US7855076B2, “Use of discoidin domain receptor 1 (DDR1) and agents that affect the DDR1/collagen pathway” (The United States of America as represented by the …, priority 2002, dated 2010)

Key:
Type in all cases: cell-based, human
THP-1 cells [1] = assay: Cytokine and chemokine release from PMA-treated THP-1 cells by ELISA; settings: DDR1b-overexpressing THP-1 cells, PMA, collagen-coated plates, 48 hours
Protocol: The production of DDR1a- or 1b-overexpressing THP-1 cells was previously described (Kamohara et al., FASEB J. 15:2724, 2001). Briefly, the human monocytic leukemic cell line, THP-1, was transduced with control retrovirus containing the vector only (mock-transduced) or retrovirus expressing DDR1a or DDR1b. THP-1 cells transduced by each virus were selected with G418, and cloned by limiting dilution. The cloned THP-1 cells were maintained in RPMI 1640 medium supplemented with 100 μg/ml gentamycin and 10% FCS (complete medium). Cells were plated at 1×10^6/ml and treated with PMA (10 nM) for variable times on uncoated or collagen-coated tissue culture plates for quantification of cytokine or chemokine release.
In addition, the concentration of MCP-1 in the culture supernatant of each cell line was measured by ELISA. The concentration of MCP-1 was measured in the Lymphokine Testing Laboratory, Clinical Services Program, SAIC-Frederick (Frederick, Md.) by using an enzyme-linked immunosorbent assay (ELISA) kit (R&D Systems, Minneapolis, Minn.) specific for the chemokine.
In addition, the concentrations of IL-1β, IL-8, and MIP-1α in the culture supernatants of each cell line were quantified by ELISA (FIG. 6). The concentration of IL-1β, IL-8, and MIP-1α were measured in the Lymphokine Testing Laboratory, Clinical Services Program, SAIC-Frederick (Frederick, Md.) by using enzyme-linked immunosorbent assay (ELISA) kits (R&D Systems, Minneapolis, Minn.) specific for each human cytokine and chemokine. […]

NF-κB [2] = assay: NF-κB luciferase reporter assay in THP-1 cells; settings: DDR1b-overexpressing cells, 12 hours
Protocol: For the results shown in FIG. 7A, mock-transduced or DDR1b-overexpressing THP-1 cells were transfected with 10 μg of the NF-κB-Luc plasmid and 5 μg of pSV-β-galactosidese plasmid DNA (Promega, Madison, Wis.) per 100-mm tissue culture plate using Effectene Transfection Reagent (Qiagen, Valencia, Calif.), according to the manufacture's protocol. After a 12-hour incubation, cells were rinsed with phosphate buffered saline (PBS) and then incubated with 10 nM PMA on collagen-coated plates in the presence of absence of SB203580, PD98059, CAPE or dimethlysulfoxide (DMSO) for another 12 hours. Cells were collected and lysed using the Reporter Lysis Buffer (Promega, Madison, Wis.), and luciferase activity and β-galactosidase activities were measured according to the protocol provided by the manufacturer. The resulting luciferase activity was corrected based on the β-galactosidase activity in the same cell extract. For the results shown in FIG. 7B, DDR1b-overexpressing THP-1 cells were transfected with 10 μg of the pGLM-ENH, or pGLM-MA1MA2 (Ueda et al., J. Bio. Chem. 272: 31092-9, 1997) and 5 μg of pSV-β-galactosidese plasmid DNA (Promega, Madison, Wis.) per 100-mm tissue culture plate using Effectene Transfection Reagent (Qiagen, Valencia, Calif.) according to the manufacture's protocol. […] Cells were collected and lysed using the Reporter Lysis Buffer (Promega, Madison, Wis.), and luciferase activity and β-galactosidase activities were measured according to the protocol provided by the manufacturer. […]
Mock-transduced or DDR1b-overexpressing THP-1 cells were transfected with 10 μg of the NF-κB-Luc plasmid, pGL-ENH, or pGL-MA1MA2 and 5 μg of pSV-β-galactosidase plasmid DNA (Promega, Madison, Wis.) per 100-mm tissue culture plate using Effectene Transfection Reagent (Qiagen, Valencia, Calif.) according to the manufacture's protocol. […] Luciferase activity and β-galactosidase activities were measured according to the protocol provided by the manufacturer. […]

NF-κB [3] = assay: Nuclear translocation of NF-κB by EMSA; settings: DDR1b-overexpressing cells on collagen-coated plates
Protocol: Nuclear translocation of NF-κB was examined by EMSA. Nuclear extracts were prepared by a method previously reported (Ueda et al., J. Biol. Chem. 272:31092, 1997), and aliquots were frozen at −80° C. For EMSA, end-labeled ^32P-oligonucleotide probes corresponding to the NF-KB binding site of the Ig κ-chain (5′-[…]-3′) (SEQ ID NO: 15) or MCP-1 (A2 site; 5′-[…]-3′) (SEQ ID NO: 16) gene were used. Each probe was incubated with 5 μg of nuclear extracts in 20 μl of binding cocktail (50 mM Tris-HCl, pH 7.4, 25 MM MgCl2, 0.5 mM DTT, 50% glycerol) at 4° C. for 15 minutes. The DNA-protein complexes were resolved on a 5% polyacrylanide gel. The dried gels were exposed to X-ray films.

p38 MAP kinase = assay: Phosphorylation of p38 MAP kinase in PMA-treated THP-1 cells, Western blotting; settings: DDR1b-overexpressing cells treated before PMA-treatment
Protocol: Parental, mock, DDR1a- or DDR1b-overexpressing THP-1 cells were plated at 5×10^6/ml on uncoated tissue culture plates and stimulated with PMA (10 nM) for 24 hours, and then starved in RMPI 1640 without FCS for 10 hours. Subsequently cells were washed three times with PBS, and then incubated in the presence of 50 μg/ml collagen type I for various times.
Ten million cells were lysed on ice for 20 minutes in a buffer containing 50 mM NaCl, 20 mM Tris-HCl, 50 mM sodium fluoride, 30 mM Na4P2O7, 5 mM EGTA, 3 mM sodium orthovanadate, 1% Triton X-100, 1 mg/ml leupeptin, 1 mM PMSF, 1 mg/ml aprotinin, 1 mg/ml pepstatinA and 100 μM sodium orthovanadate treated with H2O2. A lysis buffer containing 150 mM NaCl, 50 mM HEPES, 1% Triton-X 10% glycerol, 1 mM sodium fluoride, 1 mM EDTA, 2 mM sodium orthovanadate, 1 mg/ml leupeptin, 1 mM PMSF, 1 mg/ml aprotinin, 1 mg/ml pepstatinA and 100 μM sodium orthovanadate treated with H2O2, was also used for immunoprecipitation with anti-Shc Ab. The lysates were spun in a microcentrifuge for 20 minutes and the supernatants were collected. […]
Eluted proteins were analyzed on 8% polyacrylamide gels by SDS-PAGE and transferred electrophoretically to nitrocellulose membranes at 150 mA for 1 hour by a semi-dry system. […] To detect phosphorylated or nonphosphorylated p38 MAP kinase or ATF-2, 20 μl of cell lysates were directly mixed with 20 μl of sample buffer and then analyzed.
Downstream signaling molecules that may play a role in the up-regulation of HLA-DR in collagen-activated PMA-treated DDR1b-overexpressing cells were identified in the following manner. […] Phosphorylation of p38 MAP kinase was first detected 30 minutes after collagen activation of DDR1b-overexpressing cells and the level of phosphorylation increased thereafter. […] Phosphorylation of p38 MAP kinase was not detected in DDR1a-overexpressing cells up to 120 minutes. […] Phosphorylation of other members of the MAP kinase family, ERK1, ERK2, and JNK could not be detected in collagen-activated PMA-treated DDR1b-overexpressing cells. […]

THP-1 cells [4] = assay: Flow cytometry of HLA-DR, CD11c, CD14, CD40 on PMA-treated THP-1 cells
Protocol: FIG. 5 is a graph showing the effects of collagen-activation of two DDR1 isoforms on the expression of CD11c, CD14, and CD40. Each cell line was plated at 5×10^6 cells/ml on either uncoated or collagen-coated plates and incubated at 37° C. for 24 hours in the presence of 10 nM PMA. Anti-1β integrin antibody (10 μg/ml) was used to block the effect of 1β integrin-collagen interaction. The percentage of CD11c, CD14, or CD40-positive cells is shown. Data are presented as the mean ±SD from three independent experiments.
Parental, mock, DDR1a-overexpressing, or DDR1b overexpressing THP-1 cells were plated at 5×10^6 cells/ml on either uncoated or collagen-coated plates and incubated at 37° C. for 24 or 48 hours in the presence of 10 nM PMA. One hundred thousand cells were suspended in 50 μl of cold PBS containing 0.1% NaN3, […] BSA and 200 μg/ml human IgG in a Falcon 2052 tube, and incubated for 10 minutes on ice. One μg of mouse monoclonal antibody against CD11c, CD14 CD40, or HLA-DR, or control mouse IgG were added to each tube and the cells were incubated for another 15 minutes on ice. The cells were washed with PBS, and then incubated with 1 μg of FITC-conjugated goat anti-mouse IgG for 15 minutes on ice. At the end of incubation, propidium iodide (PI) (100 μM) was added to each tube. The cells were washed by PBS, and subsequently analyzed by using a FACS scan (Becton Dickinson). Dead cells, determined by the incorporation of PI, were gated out. Results were processed by using the Cellquest software (Becton Dickinson).
The cells were then rinsed three times with RPMI 1640 containing 10% FCS, and incubated either with the p38 MAP kinase inhibitor SB203580, the MEK (MAP or ERK kinase) ½ inhibitor PD98059, or dimethylsulfoxide (DMSO) for 30 minutes, followed by an additional 12 hour incubation in the presence of 10 nM PMA plus collagen. The expression of HLA-DR was analyzed by flow cytometry.

DDR1 mRNA = DDR1 mRNA expression in PBMC by Northern blotting; settings: 8 hours, TNF-α 5 ng/ml, IL-1β 10 ng/ml, IFN-γ 50 U/ml, GM-CSF 10 ng/ml, LPS 1 μg/ml, PHA 5 μg/ml
Protocol: PMN and PBMC were maintained at a density of 5×10^6 cells/ml in the complete medium in six-well tissue culture cluster (Coster, Cambridge, Mass.; 3 ml/well). Total RNA was extracted from each culture by using TRIZOL® Reagent. PolyA mRNA was purified on Oligotex columns (Qiagen, Valencia, Calif.). Northern blot analysis was performed as described (Yoshimura, J. Immunol. 150:5025, 1993), except that ULTRAhyb (Ambion) was used. A human DDR1 cDNA (757-bp) was obtained by PCR from a U-105 human glioblastoma cell line cDNA library and was ligated into the EcoRI/HindIII site of the pBluescript (Stratagene, La Jolla, Calif.). The sense primer was 5′-[…]-3′ (SEQ ID NO: 2; corresponding to residues between 68 and 87 in the nucleotide sequence of the trkE cDNA, GenBank accession number X74979) and the antisense primer was 5′-[…]-3′ (SEQ ID NO: 3; corresponding to residues between 805 and 824 in the nucleotide sequence of the trkE cDNA).
Freshly isolated PBMC expressed only a low level of DDR1 mRNA. The expression level was increased about eightfold when the cells were incubated in either RPMI 1640 or RPMI 1640 containing 10% FCS.

Molecule: O=C(/C=C/c1ccc(O)c(O)c1)OCCc1ccccc1 [CAPE]
- collagen-induced up-regulation of IL-8 release (THP-1 cells [1]): inhibited
- collagen-induced up-regulation of MCP-1 release (THP-1 cells [1]): inhibited
- collagen-induced up-regulation of MIP-1α release (THP-1 cells [1]): inhibited
- increase in luciferase activity induced by PMA plus collagen (NF-κB [2]): completely inhibited
- increased NF-κB/DNA binding (NF-κB [3]): completely abolished

Molecule: C[C@@H]1C[C@@H]([C@H](O)CC2CC(=O)NC(=O)C2)C(=O)[C@@H](C)C1 [CHX, cycloheximide, reference compound]
- phosphorylation of p38 MAP kinase in response to collagen (p38 MAP kinase): completely inhibited

Molecule: COc1cccc(-c2cc(=O)c3ccccc3o2)c1N [PD98059]
- expression of HLA-DR (THP-1 cells [4]; collagen-activated PMA-treated DDR1b-overexpressing cells, 24 hours): no effect
- collagen-induced up-regulation of IL-1β release (THP-1 cells [1]): no effect
- collagen-induced up-regulation of IL-8 release (THP-1 cells [1]): no effect
- collagen-induced up-regulation of MCP-1 release (THP-1 cells [1]): no effect
- collagen-induced up-regulation of MIP-1α release (THP-1 cells [1]): no effect

Molecule: CCCCCCCCCCCCCC(=O)O[C@@H]1[C@@H](C)[C@@]2(O)[C@@H](C=C(CO)C[C@]3(O)C(=O)C(C)=C[C@@H]23)[C@@H]2C(C)(C)[C@]12OC(C)=O [PMA, phorbol 12-myristate 13-acetate, reference compound]
- HLA-DR-positive cells (THP-1 cells [4]; parental, mock, DDR1a- or DDR1b-overexpressing THP-1 cells, uncoated plates, 48 hours): 26 to 28%

Molecule: IL-1β: human recombinant interleukin-1β
- level of DDR1 mRNA expression (DDR1 mRNA): further augmented
